Key:
[1] = biological target: T1, human A2B AR (Homo sapiens, UniProt P29275); test: cAMP functional assay in CHO-K1/ADORA2b/Gα15 cells (NECA-stimulated, HTRF); type: cell-based; conditions: mean ± SEM; for inhibition at 0.1 µM: CHO-K1, read-out: hA2B AR (%) inhibition of cAMP, 100 nM; for IC50: CHO cells expressing hA2B AR, read-out: cAMP IC50 hA2B AR
T1 sequence (P29275 1-332): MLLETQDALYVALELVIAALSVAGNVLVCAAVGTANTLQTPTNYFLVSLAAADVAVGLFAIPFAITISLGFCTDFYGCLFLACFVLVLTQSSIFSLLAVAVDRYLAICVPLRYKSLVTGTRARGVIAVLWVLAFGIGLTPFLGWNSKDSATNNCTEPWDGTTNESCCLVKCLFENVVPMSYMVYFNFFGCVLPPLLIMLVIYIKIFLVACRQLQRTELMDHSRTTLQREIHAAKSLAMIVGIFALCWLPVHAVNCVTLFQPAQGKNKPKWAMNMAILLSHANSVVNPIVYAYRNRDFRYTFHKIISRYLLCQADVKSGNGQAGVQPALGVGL
Procedure: (§16) In the cAMP assay, CHO-K1/ADORA2A/Gα15 cells expressing human A2A AR and CHO-K1/ADORA2b/Gα15 cells expressing human A2B AR were activated by 5′-(N-ethylcarboxamido)adenosine (NECA) and triggered the accumulation of intracellular cAMP concentration.
(§17) CHO-K1/ADORA2A/Gα15 cells expressing human A2A AR and CHO-K1/ADORA2b/Gα15 cells expressing human A2B AR were both constructed by Genscript Biotech Corporation. […] The test stock solutions were diluted with different gradients for use. The procedure was exemplified by the cAMP functional assay on the A2A receptor: 10,000 cells/well of CHO-K1/ADORA2A/Gα15 were seeded in a 384-well plate in 20 μl of assay buffer. […] Then, 10 μl of detection reagent (cAMP-d2 and anti-cAMP-Eu3+) was added into each well of the plate and incubated at room temperature for 1 h.

[2] = biological target: human A2A AR (Homo sapiens, UniProt P29274); test: cAMP functional assay in CHO-K1/ADORA2A/Gα15 cells (NECA-stimulated, HTRF); type: cell-based; conditions: for inhibition at 0.01 µM / inhibition at 0.1 µM / inhibition at 1 µM: CHO-K1; for inhibition at 0.01 µM: read-out: hA2A AR (%) inhibition of cAMP, 10 nM; for inhibition at 0.1 µM: read-out: hA2A AR (%) inhibition of cAMP, 100 nM; for inhibition at 1 µM: read-out: hA2A AR (%) inhibition of cAMP, 1000 nM; for IC50: CHO cells expressing hA2A AR, read-out: cAMP IC50 hA2A AR; for fold less active than compound 7i (cAMP IC50, A2A receptor): ratio of cAMP IC50 values vs 7i;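 as to all read-outs here: inhibition of NECA-driven intracellular cAMP build-up in the A2A-expressing cells, quantified with cAMP-d2 plus Eu3+-labelled anti-cAMP detection reagent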
Chain of human A2A AR (P29274 whole entry): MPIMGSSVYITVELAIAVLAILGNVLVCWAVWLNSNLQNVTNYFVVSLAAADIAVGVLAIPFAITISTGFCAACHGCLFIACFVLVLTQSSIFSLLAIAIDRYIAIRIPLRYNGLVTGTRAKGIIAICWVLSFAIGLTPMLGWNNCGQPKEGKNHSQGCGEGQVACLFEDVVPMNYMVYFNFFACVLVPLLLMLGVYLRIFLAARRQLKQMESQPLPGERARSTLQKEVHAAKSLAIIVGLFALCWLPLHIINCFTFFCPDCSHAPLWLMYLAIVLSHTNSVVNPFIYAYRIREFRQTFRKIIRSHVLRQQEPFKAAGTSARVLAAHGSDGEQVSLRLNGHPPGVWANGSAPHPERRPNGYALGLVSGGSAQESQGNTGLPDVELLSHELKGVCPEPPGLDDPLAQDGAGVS
Procedure: as §16, §17

[3] = Metabolic stability in human liver microsomes; type: in vitro ADME
Procedure: (§1) The metabolic stability is an important focus for further compound optimisation. Compounds 7f, 7i, and AB928 were chosen to evaluate the stability in rat liver microsomes and human liver microsomes. For the microsomal metabolic experiment, 7-ethoxycoumarin (7-EC) was used as a control. As shown in Table 4 (see Supporting information for raw data), the CLint(liver) of 7-EC in rats and humans was 10.0 and 9.0 ml/min/g liver, respectively, indicating the experimental test system was reliable.
(§2) Metabolic stabilities of compounds 7f, 7i, and AB928 in liver microsomes were studied with pooled human (male) liver microsomes solution (20 mg/ml) and male Sprague–Dawley rats pooled liver microsomes solution (20 mg/ml) purchased from Research Institute for Liver Diseases (Shanghai) Co. Ltd. Both liver microsomes solutions (140 μl) were diluted by 3948 μl of water and 280 μl of phosphate buffered saline. The assay procedure: 640 μl of diluted liver microsomes solution was added to a solution of compound working solution (16 μl, 25 μM in DMSO) and the mixed solution was incubated at 37 °C for 5 min. Then 160 μl of NADPH generating system was added and take out 100 μl from the mixed solution was added 200 μl of acetonitrile solution to stop the reaction at the set incubation time (0 min, 10 min, 20 min, 30 min, 40 min, 50 min, and 60 min). All stopped reaction solutions were vortex mixed (3 min) and centrifuged (10,000 rpm, 4 °C for 10 min). Then 50 μl of the supernatant was analysed by UPLC-MS/MS system (details of the analytical method see Supporting information). […]
(§3) 8. Metabolic stability in human and rat liver microsomes
(§4) Metabolic stabilities of compounds 7f, 7i and AB928 in liver microsomes were studied with pooled human (male) liver microsomes solution (20 mg/mL) and male Sprague - Dawley rats pooled liver microsomes solution (20 mg/mL) purchased from Research Institute for Liver Diseases (Shanghai) Co. Ltd. Both liver microsomes solutions (140 μL) were diluted by 3948 μL of water and 280 μL of phosphate buffered saline. The assay procedure: 640 μL of diluted liver microsomes solution was added to a solution of compound working solution (16 μL, 25 μM in DMSO) and the mixed solution was […]
(§5) (1 picture or pasted object on this page, not shown here) […]
(§6) incubated at 37 ℃ for 5 min. Then 160 μL of NADPH generating system was added and take out 100 μL from the mixed solution was added 200 μL of acetonitrile solution to stop the reaction at the set incubation time (0 min, 10 min, 20 min, 30 min, 40 min, 50 min, and 60 min). All stopped reaction solutions were vortex mixed (3 min) and centrifuged (10000 rpm, 4 ℃ for 10 min). Then 50 μL of the supernatant was analyzed […]
(§7) 8.2 Chromatography and mass spectrometry conditions
(§8) UPLC was performed using an […] UPLC system (Waters, Milford, MA, […]
(§9) USA). Separation was achieved on a Waters BEH C18 column(100 mm × 2.1 mm， 1.7 μm) at 40 ℃. The injection volume of the sample solution was 5 μL. The mobile phase consisted of water (0.1% formic acid and ammonium acetate) and acetonitrile solution (20:80, v/v) at a flow rate of 0.4 mL/min within a running time of 6 min. Mass spectrometric analysis was performed on a Waters Xevo TQ-S triple quadrupole instrument using electrospray ionization in positive mode. Quantification was performed using multiple reaction monitoring (MRM) mode to monitor precursor-product ion transitions (Table S1).
(§10) Table S1. Conditions of MRM Detection. […]
(§11) Table S2. Raw data of metabolic stability in human and rat liver microsomes. […]
(§12) (min) Hum Rat Hum Rat Hum Rat Hum Rat
(§13) 9. Analytical method of pharmacokinetics assay
(§14) Animal experiments were performed according to the institutional ethical guidelines on animal care and approved by the Institute Animal Care and Use Committee at Binzhou […]
(§15) Female Bal b/c mice (sourced from Jinan Pengyue Experimental Animal Breeding […]

[4] = Metabolic stability in rat liver microsomes; type: in vitro ADME, Sprague–Dawley rats
Procedure: as §1, §2, §3, §4, §5, §6, §7, §8, §9, §10, §11, §12, §13, §14, §15

[5] = compound at 100 nM, relative to ZM241385 at 1 μM
[6] = compound at 10 nM, relative to ZM241385 at 1 μM, mean ± SEM
[7] = compound at 100 nM, relative to ZM241385 at 1 μM, mean ± SEM
[8] = compound at 1000 nM, relative to ZM241385 at 1 μM, mean ± SEM

| Compound | inhibition at 0.1 µM [1, 5] [%] | inhibition at 0.01 µM [2, 6] [%] | inhibition at 0.1 µM [2, 7] [%] | inhibition at 1 µM [2, 8] [%] | melting point [°C] | other results |
| --- | --- | --- | --- | --- | --- | --- |
| Cc1c(C#N)cccc1-c1cc(-c2cn(Cc3cccc(C(=O)N4CC(O)C4)n3)nn2)nc(N)n1 [Compound 7k, 3-(2-Amino-6-(1-((6–(3-hydroxyazetidine-1-carbonyl)pyridin-2-yl)methyl)-1H-1,2,3-triazol-4-yl)pyrimidin-4-yl)-2-methylbenzonitrile] | 78.3 ± 2.66 | 21.7 ± 5.43 | 70.5 ± 6.37 | 94.9 ± 2.05 |  |  |
| Cc1c(C#N)cccc1-c1cc(-c2cn(Cc3ccc4cccc(N)c4n3)nn2)nc(N)n1 [Compound 7c, 3-(2-amino-6-(1-((8-aminoquinolin-2-yl)methyl)-1H-1,2,3-triazol-4-yl)pyrimidin-4-yl)-2-methylbenzonitrile] | 85.43 ± 0.04 | 35.9 ± 5.39 | 38.2 ± 10.8 | 48.5 ± 1.45 | 268 to 269 |  |
| CCOc1ccc2ccc(=O)oc2c1 [Compound 7-EC, 7-ethoxycoumarin, reference compound] |  |  |  |  |  | CLint(liver) Hum ([3]; human, microsomes): 9.0 mL/min/g; half-life at 0.49 µM ([3]; male, human, microsomes): 8.12 min; remaining at 20 min, 0.49 µM ([3]; male, human, microsomes): 11.5%; remaining at 0.5 h, 0.49 µM ([3]; male, human, microsomes): 3.54%; remaining at 40 min, 0.49 µM ([3]; male, human, microsomes): 1.6%; remaining at 50 min, 0.49 µM ([3]; male, human, microsomes): 0.97%; remaining at 1 h, 0.49 µM ([3]; male, human, microsomes): 0.72%; remaining at 10 min, 0.49 µM ([3]; male, human liver microsomes, 10 min, read-out: %Remaining Hum, 10 min): 34%; remaining at 10 min, 0.49 µM ([4]; male, Sprague-Dawley, pooled rat liver microsomes, rat liver microsomes, 10 min): 49%; remaining at 20 min, 0.49 µM ([4]; male, Sprague-Dawley, pooled rat liver microsomes, rat liver microsomes, 20 min): 23%; remaining at 0.5 h, 0.49 µM ([4]; male, Sprague-Dawley, pooled rat liver microsomes, rat liver microsomes, 30 min): 10.4%; remaining at 40 min, 0.49 µM ([4]; male, Sprague-Dawley, pooled rat liver microsomes, rat liver microsomes, 40 min): 2.98%; remaining at 50 min, 0.49 µM ([4]; male, Sprague-Dawley, pooled rat liver microsomes, rat liver microsomes, 50 min): 1.02%; remaining at 1 h, 0.49 µM ([4]; male, Sprague-Dawley, pooled rat liver microsomes, rat liver microsomes, 60 min, read-out: Remaining (%, T = 60min) Rat): 0.35%; half-life at 0.49 µM ([4]; male, Sprague-Dawley, rat, pooled rat liver microsomes, read-out: T1/2 Rat): 7.26 min; CLint(liver) Rat ([4]; rat liver microsomes): 10.0 mL/min/g |
| COc1cccc(Cn2cc(-c3cc(-c4cccc(C#N)c4C)nc(N)n3)nn2)c1 [Compound 7m, 3-(2-Amino-6-(1-(3-methoxybenzyl)-1H-1,2,3-triazol-4-yl)pyrimidin-4-yl)-2-methylbenzonitrile] | 69.4 ± 4.01 | 21.5 ± 4.32 | 28.6 ± 4.03 | 69.6 ± 1.01 | 163 to 164 |  |
| Cc1c(C#N)cccc1-c1cc(-c2cn(Cc3cccc(C(=O)NCCO)n3)nn2)nc(N)n1 [Compound 7j, 6-((4-(2-Amino-6-(3-cyano-2-methylphenyl)pyrimidin-4-yl)-1H-1,2,3-triazol-1-yl)methyl)-N-(2-hydroxyethyl)picolinamide] | 82.4 ± 4.52 | 22.4 ± 6.68 | 82.2 ± 1.26 | 101 ± 4.62 | 208 to 209 |  |
| CC(C)(O)c1cccc(Cn2cc(-c3cc(-c4cccc(CF)c4)nc(N)n3)nn2)n1 [Compound 22, 2-(6-((4-(2-amino-6-(3-(fluoromethyl)phenyl)pyrimidin-4-yl)-1H-1,2,3-triazol-1-yl)methyl)pyridin-2-yl)propan-2-ol] | 19.9 ± 1.85 | 22.4 ± 11.9 | 94.7 ± 4.43 | 93.6 ± 2.76 | 76 to 77 | IC50 [1]: 178 ± 9.89 nM; IC50 ([2]; mean ± SEM): 67.2 ± 10.9 nM; fold less active than compound 7i (cAMP IC50, A2A receptor) [2]: 11 fold |
| Cc1c(C#N)cccc1-c1cc(-c2cn(Cc3ccc4ccccc4n3)nn2)nc(N)n1 [Compound 7a, 3-(2-Amino-6–(1-(quinolin-2-ylmethyl)-1H-1,2,3-triazol-4-yl)pyrimidin-4-yl)-2-methylbenzonitrile] | 3.51 ± 3.19 | 28.2 ± 8.79 | 16.5 ± 1.9 | 43.5 ± 0.77 | 203 to 204 |  |
| Cc1c(C#N)cccc1-c1cc(-c2cn(Cc3cccc(C(=O)O)n3)nn2)nc(N)n1 [Compound 7h, 6-((4-(2-amino-6–(3-cyano-2-methylphenyl)pyrimidin-4-yl)-1H-1,2,3-triazol-1-yl)methyl)picolinic acid] | 54.8 ± 2.09 | 37.9 ± 2.32 | 55.2 ± 4.27 | 92.6 ± 1.91 | 176 to 177 |  |
| COc1ccc(Cn2cc(-c3cc(-c4cccc(C#N)c4C)nc(N)n3)nn2)cc1 [Compound 7n, 3-(2-Amino-6-(1-(4-methoxybenzyl)-1H-1,2,3-triazol-4-yl)pyrimidin-4-yl)-2-methylbenzonitrile] | 63.5 ± 4.93 | 18.8 ± 3.88 | 29.8 ± 0.38 | 54.8 ± 2.41 | 149 to 150 |  |
| 3-(2-Amino-6-(1-((6–(2-(hydroxymethyl)pyrrolidine-1-carbonyl)pyridin-2-yl)methyl)-1H-1,2,3-triazol-4-yl)pyrimidin-4-yl)-2-methylbenzonitrile [Compound 7l] |  |  |  |  |  | hA2B AR (%) inhibition of cAMP, 100 nM [1, 5]: 84.34 ± 4.72%; hA2A AR (%) inhibition of cAMP, 10 nM [2, 6]: 13.46 ± 3.71%; hA2A AR (%) inhibition of cAMP, 100 nM [2, 7]: 52.3 ± 8.46%; hA2A AR (%) inhibition of cAMP, 1000 nM [2, 8]: 89.66 ± 1.31% |
| Cc1c(C#N)cccc1-c1cc(-c2cn(Cc3cccc(C(=O)OC(C)C)n3)nn2)nc(N)n1 [Compound 7e, Isopropyl 6-((4-(2-amino-6-(3-cyano-2-methylphenyl)pyrimidin-4-yl)-1H-1,2,3-triazol-1-yl)methyl)picolinate] | 82.5 ± 7.81 | 45 ± 1.25 | 50.7 ± 5.51 | 67.8 ± 4.91 | 128 to 129 |  |
| Cc1ccc(-c2cc(-c3cn(Cc4cccc(C(C)(C)O)n4)nn3)nc(N)n2)o1 [Compound 17, 2-(6-((4-(2-Amino-6-(5-methylfuran-2-yl)pyrimidin-4-yl)-1H-1,2,3-triazol-1-yl)methyl)pyridin-2-yl)propan-2-ol] | 64.4 ± 0.89 | 17.6 ± 2.78 | 92.28 ± 0.61 | 92.7 ± 2.87 | 188 to 189 | IC50 [1]: 80 ± 13.4 nM; IC50 ([2]; mean ± SEM): 321 ± 94 nM; fold less active than compound 7i (cAMP IC50, A2A receptor) [2]: 52 fold |
